# From ChEMBL document CHEMBL6134813, “Arctigenin derivative TZOA restores mitochondrial homeostasis to combat rhabdovirus infections” (Eur J Med Chem, 2025)
# The source made the active and inactive calls. The calls are words filed in the database; no cut-off is given here.
# Experiments:
# [1] = test system: Infectious hematopoietic necrosis virus; assay: Antiviral activity against IHNV infected in juvenile rainbow trout assessed as decrease in viral G gene expression in kidney administered intraperitoneally measured after 1 to 4 days by RT-qPCR analysis; assay type: functional, organism-based; conditions: route ip, time 1-4 day
# [2] = test system: Infectious hematopoietic necrosis virus; assay: Antiviral activity against IHNV infected in EPC cells (unknown origin) assessed as increase in virus-reduced MAVS expression in cells by Western blot analysis; assay type: functional, organism-based
# [3] = test system: Infectious hematopoietic necrosis virus; assay: Antiviral activity against IHNV infected in juvenile rainbow trout assessed as decrease in viral G gene expression in kidney of recipient fishes on horizontal transmission between virus-infected donor fishes and non-infected recipient fishes at 25 uM immersed together in compound for 48 hrs by qPCR analysis; assay type: functional, organism-based
# [4] = test system: Infectious hematopoietic necrosis virus; assay: Antiviral activity against IHNV infected in EPC cells (unknown origin) assessed as reduction in viral load for adsorption at 25 uM measured after 1 hr of incubation at 4 degreeC by RT-qPCR analysis relative to control; assay type: functional; parameters: scale not given: the % may be the effect or the level left
# [5] = test system: Infectious hematopoietic necrosis virus; assay: Antiviral activity against IHNV infected in juvenile rainbow trout assessed as decrease in viral G gene expression in spleen of recipient fishes on horizontal transmission between virus-infected donor fishes and non-infected recipient fishes at 25 uM immersed together in compound for 48 hrs by qPCR analysis; assay type: functional, organism-based
# [6] = test system: Infectious hematopoietic necrosis virus; assay: Antiviral activity against IHNV infected in EPC cells (unknown origin) assessed as formation of tubular structures by cristae by TEM analysis; assay type: functional, organism-based
# [7] = test system: Infectious hematopoietic necrosis virus; assay: Antiviral activity against IHNV infected in EPC cells (unknown origin) assessed as decrease in formation of new viral particles at 25 uM measured after 72 hrs by RT-qPCR analysis relative to control; assay type: functional; parameters: scale not given: the % may be the effect or the level left
# [8] = test system: Infectious hematopoietic necrosis virus; assay: Antiviral activity against IHNV infected in juvenile rainbow trout assessed as decrease in hemorrhage in kidney administered intraperitoneally measured after 2 days by H and E staining based analysis; assay type: functional, organism-based; conditions: route ip, time 2.0 day
# [9] = test system: Infectious hematopoietic necrosis virus; assay: Antiviral activity against IHNV infected in EPC cells (unknown origin) assessed as inhibition of viral M gene expression measured after 72 hrs by RT-qPCR analysis; assay type: functional, organism-based; conditions: dose 0.1-100 µM
# [10] = test system: Infectious hematopoietic necrosis virus; assay: Antiviral activity against IHNV infected in EPC cells (unknown origin) assessed as viral titer measured per 0.1 ml incubated for 96 hrs by Reed-Muench method (reference value: 1 10^7.77TCID50); assay type: functional
# [11] = test system: Infectious hematopoietic necrosis virus; assay: Antiviral activity against IHNV infected in EPC cells (unknown origin) assessed as reduction in viral G protein expression at 25 uM pretreated virus with compound for 2 hrs followed by compound-treated virus infection in EPC cells measured after 72 hrs by RT-qPCR analysis relative to control; assay type: functional; parameters: scale not given: the % may be the effect or the level left
# [12] = test system: Infectious hematopoietic necrosis virus; assay: Antiviral activity against IHNV infected in EPC cells (unknown origin) assessed as mtDNA intact with mitochondria at 25 uM incubated for 72 hrs by TOMM20 dye based analysis; assay type: functional, organism-based
# [13] = test system: Infectious hematopoietic necrosis virus; assay: Antiviral activity against IHNV infected in EPC cells (unknown origin) assessed as reduction in virus-induced mitochondrial-lysosomal contact at 25 uM incubated for 72 hrs by Mito-Tracker/Lyso-Tracker dye based analysis; assay type: functional, organism-based
# [14] = test system: Infectious hematopoietic necrosis virus; assay: Antiviral activity against IHNV infected in EPC cells (unknown origin) assessed as unchanged morphology in host cells at 25 uM pretreated virus with compound for 4 hrs followed by compound-treated virus infection in EPC cells measured after 72 hrs by microscopic analysis; assay type: functional, organism-based
# [15] = test system: Infectious hematopoietic necrosis virus; assay: Antiviral activity against IHNV infected in EPC cells (unknown origin) assessed as inhibition of viral infection at 4 to 25 uM measured after 72 hrs by RT-qPCR analysis; assay type: functional, organism-based; conditions: dose 4-25 µM
# [16] = test system: Infectious hematopoietic necrosis virus; assay: Antiviral activity against IHNV infected in EPC cells (unknown origin) assessed as reduction in virus-induced disruption of mitochondrial membrane potential at 25 uM incubated for 72 hrs by JC-1 dye based analysis; assay type: functional, organism-based
# [17] = test system: Infectious hematopoietic necrosis virus; assay: Antiviral activity against IHNV infected in EPC cells (unknown origin) assessed as viral titer measured per 0.1 ml incubated for 48 hrs by Reed-Muench method (reference value: 1 10^5.75TCID50); assay type: functional
# [18] = test system: Infectious hematopoietic necrosis virus; assay: Antiviral activity against IHNV infected in EPC cells (unknown origin) assessed as increase in cell proliferation at 4 uM measured after 72 hrs by CCK8 assay relative to control; assay type: functional
# [19] = test system: Infectious hematopoietic necrosis virus; assay: Antiviral activity against IHNV infected in juvenile rainbow trout assessed as increase in survival rate administered intraperitoneally measured for 14 days relative to control; assay type: functional; conditions: route ip; time 14 day
# [20] = test system: Infectious hematopoietic necrosis virus; assay: Antiviral activity against IHNV infected in juvenile rainbow trout assessed as decrease in hemorrhage in spleen administered intraperitoneally measured after 2 days by H and E staining based analysis; assay type: functional, organism-based; conditions: route ip, time 2.0 day
# [21] = test system: Infectious hematopoietic necrosis virus; assay: Antiviral activity against IHNV infected in EPC cells (unknown origin) assessed as mitochondrial length by TEM analysis (reference value: 0.2 to 0.7 um); assay type: functional
# [22] = test system: Infectious hematopoietic necrosis virus; assay: Antiviral activity against IHNV infected in EPC cells (unknown origin) assessed as reduction in viral G protein expression at 25 uM pretreated virus with compound for 4 hrs followed by compound-treated virus infection in EPC cells measured after 72 hrs by RT-qPCR analysis relative to control; assay type: functional; parameters: scale not given: the % may be the effect or the level left
# [23] = test system: Infectious hematopoietic necrosis virus; assay: Antiviral activity against IHNV infected in EPC cells (unknown origin) assessed as viral titer measured per 0.1 ml incubated for 72 hrs by Reed-Muench method (reference value: 1 10^6.74TCID50); assay type: functional
# [24] = test system: Infectious hematopoietic necrosis virus; assay: Antiviral activity against IHNV infected in juvenile rainbow trout assessed as increase in Mx1 gene expression in kidney administered intraperitoneally measured after 2 days by RT-qPCR analysis; assay type: functional, organism-based; conditions: route ip, time 2.0 day
# [25] = test system: Infectious hematopoietic necrosis virus; assay: Antiviral activity against IHNV infected in juvenile rainbow trout assessed as increase in IRF3 gene expression in kidney administered intraperitoneally measured after 2 days by RT-qPCR analysis; assay type: functional, organism-based; conditions: route ip, time 2.0 day
# [26] = test system: Infectious hematopoietic necrosis virus; assay: Antiviral activity against IHNV infected in juvenile rainbow trout assessed as decrease in erythrocytes in spleen administered intraperitoneally measured after 2 days by H and E staining based analysis; assay type: functional, organism-based; conditions: route ip, time 2.0 day
# [27] = test system: Infectious hematopoietic necrosis virus; assay: Antiviral activity against IHNV infected in EPC cells (unknown origin) assessed as smooth outer membrane in mitochondria by TEM analysis; assay type: functional, organism-based
# [28] = test system: Infectious hematopoietic necrosis virus; assay: Antiviral activity against IHNV infected in juvenile rainbow trout assessed as decrease in viral titer in donor fishes on horizontal transmission between virus-infected donor fishes and non-infected recipient fishes at 25 uM immersed together in compound for 48 hrs; assay type: functional, organism-based
# [29] = test system: Infectious hematopoietic necrosis virus; assay: Antiviral activity against IHNV infected in EPC cells (unknown origin) assessed as uniform sized nuclei at 25 uM measured after 72 hrs by fluorescence microscopy; assay type: functional, organism-based
# [30] = test system: Infectious hematopoietic necrosis virus; assay: Antiviral activity against IHNV infected in EPC cells (unknown origin) assessed as increase in virus-reduced average number of mitochondrial networks within cells at 25 uM incubated for 72 hrs by Mito-Tracker dye based analysis; assay type: functional, organism-based
structure (smiles),measurement,setting,value
COc1ccc(C[C@H]2COC(=O)[C@@H]2Cc2ccc(OCCCCCCCCn3cncn3)c(OC)c2)cc1OC,Activity,[1],Active
same,Activity,[2],Active
same,Activity,[3],Active
same,Activity,[4],20%
same,Activity,[5],Active
same,Activity,[6],"Active; The Cristae Formed Tubular Structures, With The Inter-Membrane Space Forming The Mitochondrial Outer Chamber And Connecting Cristae Inner Spaces"
same,Activity,[7],100%
same,Activity,[8],Active
same,inhibition,[9],Dose-dependent-effect
same,Activity,[10],1 10^5.48TCID50
same,Activity,[11],24%
same,Activity,[12],Active
same,Activity,[13],Active
same,Activity,[14],Active
same,inhibition,[15],Active
same,Activity,[16],Active
same,Activity,[17],1 10^2.45TCID50
same,Activity,[18],>50%
same,Survival,[19],44%
same,Activity,[20],Active
same,Activity,[21],0.8 um
same,Activity,[22],67%
same,Activity,[23],1 10^4.73TCID50
same,Activity,[24],Active
same,Activity,[25],Active
same,Activity,[26],Active
same,Activity,[27],Active
same,Activity,[28],Active
same,Activity,[29],Active
same,Activity,[30],Active
